Results from patent US9365830B2, “Agents and methods for inhibiting human pluripotent stem cell growth” (VIACYTE, INC., priority 2010, dated 2016).

Key:
[1] = tested on: hESCs (BG02); assay: Real-time impedance assay (RT-CES) for inhibitory and cytotoxic agents on hESCs; settings: 10 μM compound added after about 24 hours, cultured about 5 more days; compared to DMSO control
Text: The foregoing 176 selected compounds from the complete LOPAC1280™ library were then used to screen human pluripotent stem cells, e.g., hESCs, and differentiating cultures during Stage 1 (definitive endoderm) using a real-time impedance assay (ACEA biosciences RT-CES system). The RT-CES system uses 96-well trays that contain embedded microsensors to monitor changes in electrical impedance, which is translated into a measure of cell index. Any overt alteration within a cell culture can be detected, including but not limited to cell proliferation, migration, cell spreading, apoptosis, differentiation and the like. […] An increase in the cell index indicates proliferation of the cells, for example, proliferation of the undifferentiated cells. […] See also FIG. 1. […] A “scallop” cell index is one which remains high due to a confluent culture of cells, but will go down and up (scallop) between daily feedings. Conversely, cells undergoing differentiation have distinctive patterns, such as peaks and troughs in the cell index, potentially indicative of an epithelial-to-mesenchymal transition, flattening, cell migration, apoptosis or similar differentiation and growth related changes.
Impedance Assay for Inhibitory and Cytotoxic Agents. Human pluripotent stem cells, e.g., 2×10^4 hESCs (BG02), were cultured in DC-HAIF, a heregulin-based defined media, with daily feeding in the impedance monitoring plates. After about 24 hours, and 10 μM of the selected LOPAC1280™ compound was added to each well (see arrowhead in FIGS. 3 A & B) and cultured for about an additional 5 days.

[2] = tested on: OCT4-positive cells in Stage 1 differentiations of hES cells; assay: Plating assay for depletion of OCT4-positive cells in Stage 1 suspension aggregates, OCT4 immunostaining; assay type: cell-based, human; settings: treated day 1 to 2 of Stage 1 at EC50 concentration; plated 24 hours in hESC medium; vs untreated or DMSO
Description: Human ES cell suspension aggregates were formed in rotational culture as described previously and differentiated through Stage 1 (definitive endoderm). About 20-30 aggregates were then plated per well in 4-well tissue culture dishes coated with MATRIGEL· diluted 1:200, and cultured for 24 hours in hESC medium (DMEM/F12, 10% XF-KSR, 10 ng/mL Activin A and 10 ng/mL Heregulin). This approach was intended to increase the contrast in OCT4 expression between undifferentiated hESCs and cells committed to differentiation. […] Stated in another way, mixed population cell cultures in hESC medium would potentially support expansion/proliferation of residual undifferentiated (hESCs), thereby show increased OCT4 gene expression, as compared to cells committed to differentiation, which would have decreased of OCT4 gene expression. Plated aggregates were immunostained for OCT4 protein and counterstained with DAPI, a nuclear stain (FIG. 12). The cell aggregates that were plated had flattened and spread out within a 24-hour period; while the centers of the aggregates were still domed. […] Brightly staining OCT4-positive cells were easily identified and distinguishable from the majority of OCT4 negative cells. OCT4-positive cells were generally found in clusters and most often within the domed area of a plated aggregate. […] Smaller aggregates residing in a larger aggregate may occur as a result of the initial stages of rotational culture, or the aggregation process, during which small clusters (primary aggregates) form initially. Aggregation of two or more primary aggregates likely leads to the formation of larger secondary aggregates, which can be 100-150 μm in diameter. Thus, it is possible that any single clusters of OCT4-positive cells exist at the center of a primary aggregate and resist differentiation. Such clusters would remain substantially undifferentiated and stain OCT4-positive. One hypothesis is that primary aggregates are specified to differentiation relative to their positioning in primary and secondary aggregates. For example, FIGS. 12A through 12E show a representative series of images, from small (primary) (e.g. FIGS. 12A and 12B) and larger (secondary) (e.g. FIGS. 12C-12E) plated aggregates containing OCT4-positive clusters (dark circles).
Depletion of OCT4-positive cells during Stage 1 differentiation was examined using the plating assay described above. Stage 1 differentiations of hES cells were treated from day 1 to 2 with the candidate compounds as described in Example 2 (chelerythrine chloride, caffeic acid and Ivermectin), at their EC50 concentrations for hES cells. Plated untreated and DMSO-treated aggregates were indistinguishable, and both contained discrete clusters of OCT4-positive cells. See FIG. 13A top and bottom panels for a DMSO treated example. The intensity of OCT4-positive staining in differentiating aggregate cell cultures treated with DMSO (control) was equivalent to undifferentiated hES cells.
Additional experiments were performed using higher concentrations of compounds and extended effects of the compounds in cell culture plated aggregates in hESC medium for 24 or 72 hours before staining (FIGS. 15 and 16). […] Another group of Stage 1 differentiating cultures were processed in parallel, but treated with 10 μm chelerythrine chloride.

Molecule	cell index (impedance); inhibitory or cytotoxic effect on the hESCs [1]	intensity for OCT4 staining [2]
CN(N=O)c1cc(O)ccc1O [Dephostatin]	significant decrease	
22, 23-dihydroavermectin B1a+22,23-dihydroavermectin B1b [Ivermectin]		significantly decreased
N#C/C(=C\c1ccc(O)c(O)c1)C(=O)NCc1ccccc1 [Tyrphostin AG 490]	significant decrease	
